Values joined by “and” are separate entries in the source; they are usually repeats but may differ in a detail not shown here. Equal entries are not always repeated.
Legend:
[1] = test system: peripheral blood T cells (CD3), B cells (CD20), monocytes (CD14), lymphocytes; settings: renal allograft recipients, at the outset; cited from earlier work
kidney allograft = test: Protocol kidney biopsy after transplantation; assay type: in vivo, human; settings: for M12 biopsy: kidney biopsy 12 months after transplantation, per patient
Experimental: (§1) Patients and Protocol Therapy. Primary renal allograft patients received a non-HLA-identical kidney from either cadaveric or living donors. Subjects were 18-60 years of age and had between 1-6 MHC antigen mismatches with the kidney allograft. Kidney transplant recipients were given CAMPATH-1H (Alemtuzumab, ILEX Oncology, Inc.) at day −1 and day 0 of transplant (40 mg total dose), followed by long-term treatment with rapamycin at levels averaging 9 ng/ml. […] Another […] patients were enrolled in the control arm. The latter group received anti-CD25 (Basiliximab, Novartis, East Hanover, N.J.) induction therapy, along with conventional long-term immunosuppressants (CsA, steroids, and MMF). All patients gave written informed consent to participate in the study. The protocol was given approval by the Institutional Review Board at the University of Wisconsin-Madison.
Among the 15 CAMPATH-treated recipients, 10 used a single drug (9 with Sirolimus and 1 with Tacrolimus) for their maintenance immunosuppressive therapy. […] In the control group, all 8 patients were treated with a combination of CsA, MMF and prednisone for their immunosuppressive maintenance.

[2] = test system: peripheral blood T cells (CD3), B cells (CD20), monocytes (CD14), lymphocytes; test: Leukocyte repopulation in peripheral blood of renal allograft patients; assay type: in vivo, human
Experimental: as §1
In renal allograft recipients treated with CAMPATH-1H, immunodepletion is profound, with a 2-3 log reduction in peripheral lymphocytes at the outset (See, e.g., Brett et al., Immunology 1996, 88,13). […] Although monocytes and B cells recovered to baseline numbers by 3 and 12-months, respectively, T cell levels were slow to repopulate, recovering to approximately 50% baseline by 36 months. CD4+ and CD8+ T cell subsets were at an approximate 2:1 ratio pre-transplant, yet CD8+ T cells recovered at a relatively constant 1:1 ratio with CD4+ cells in CAMPATH-treated patients (See FIG. 6b).

[3] = test system: recipient T cells (alloreactivity to donor antigen); test: IFN-γ kinetics assay in the 5-day CFSE-MLR of renal allograft patients; assay type: cell-based, human; design: key to IFN-γ assay: HYPO: hyporesponsive; EQL: equal response to donor and third-party antigen; HYPR: hyperresponsive to donor Ag; UN: no response to donor Ag; settings: for IFN-γ assay: per patient, month 12, response to donor versus third-party antigen
Experimental: (§2) CFSE-MLR Assay. Blood was collected at 12 months post-transplant, and PBMC's purified by Ficoll gradient separation. Recipient PBMC's were labeled with 5.0 μM CFSE for 10 minutes at 37° C., upon which 1 ml of cold FCS was added to stop further staining. Cells were then washed once in complete media, and used as responder cells in an MLR in which both proliferation and kinetics of cytokine expression were measured in response to irradiated donor, third party, or autologous stimulator PBMC's. The number of class I and class II MHC mismatches between host/donor and host/third party were kept as consistent as possible with the available third parties from which to choose. A total of 2×10^5 responder and 2×10^5 stimulator cells/well were added to a 96-well round-bottom plate, in a total of 200 μl/well complete RPMI with 15% FCS. Cultures were set up in quintuplet wells such that the supernatants could be collected every 24 hours during the 5-day MLR. On day 5, T cell proliferation was measured by flow cytometry using PE-conjugated anti-CD3, CD4, and CD8 antibodies. Live cells were gated out by PI, and subsequent PE-positive cells in the lymphocyte gate were analyzed for their loss of CFSE intensity. On average, 4000 live lymphocytes were acquired for analysis using CellQuest software and a FACSCAN flow cytometer. Proliferation was analyzed using FlowJo software (Tree Star, Inc.).
Cytokine Kinetics Test. Cytokine expression levels in the MLR supernatants were measured using a multi-cytokine fluorescent bead detection system (BeadLyte, Upstate, Inc.). Fifty μl of Day 1-5 supernatants were utilized to analyze the cytokines: IL-1β, IL-2, IL-4, IL-6, IL-8, IL-10, IL-12, GM-CSF, TNF-α, and IFN-γ.
Additional information was obtained from the 5-day CFSE-MLR by collecting supernatants at 24-hour intervals and analyzing them for the expression of IFN-γ. The kinetic patterning gave a comprehensive picture of alloreactivity which could be categorized into 4 distinct groups: 1) patients who responded equally well to donor and third party antigen, 2) those who were hypo-responsive to donor, 3) those who were hyper-responsive to donor, and 4) those who were completely unresponsive to donor as opposed to third party antigen (See FIG. 4). […] Statistically, there was no bias in the hypo- (P=0.51) or hyper-responsive (P=0.73) groups using the 1-tailed Fisher's exact test. […] Therefore, the donor unresponsiveness of these 4 patients cannot simply be attributed to low T cell counts. Taken together, the present invention provides that CAMPATH-rapamycin immunotherapy promotes T cell unresponsiveness in at least a subset of renal allograft recipients.

[4] = test system: recipient T cells (alloreactivity to donor antigen); test: GM-CSF kinetics assay in the 5-day CFSE-MLR of renal allograft patients; assay type: cell-based, human; design: key: HYPO: hyporesponsive; EQL: equal response to donor and third-party antigen; HYPR: hyperresponsive to donor Ag; UN: no response to donor Ag; settings: per patient, month 12, response to donor versus third-party antigen
Experimental: as §2, with “Cultures were set up in quintuplet wells such that the supernatants could be collected every 24 hours during the 5-day MLR.” left out, “On average, 4000 live lymphocytes were acquired for analysis using CellQuest software and a FACSCAN flow cytometer.” left out
Cytokine Kinetics Test. Cytokine expression levels in the MLR supernatants were measured using a multi-cytokine fluorescent bead detection system (BeadLyte, Upstate, Inc.). […]

[5] = test system: CD3+, CD4+ and CD8+ recipient T cells; test: CFSE-MLR proliferation assay with recipient PBMC; assay type: cell-based, human; settings: patient UW19, response to third party antigen, 12 months
Text: To examine the proliferative response of host T cells to donor antigen, purified responder PBMC's were labeled with CFSE. In an effort to keep the APC source constant, only PBMC's from living donors and third parties were used.
For simplicity, the loss of CFSE intensity was designated “percent proliferation” or “percent CFSE low” (e.g., even though, generally, this is a measure of the actual number of daughter cells initially involved in the response).

[6] = maintenance Tacrolimus, prednisone
[7] = IFN-γ kinetics, 12 months, n=15 Campath, n=8 Control

Campath: humanized monoclonal antibody that binds CD52; induction therapy followed by long-term rapamycin
reduction in peripheral lymphocytes [1]: 2-3 log | M12 biopsy (kidney allograft): normal histology | M12 biopsy (kidney allograft; maintenance Sirolimus): Normal | M12 biopsy (kidney allograft; maintenance Sirolimus, MMF): C4d+, humoral rejection | M12 biopsy (kidney allograft; maintenance Tacrolimus): Normal | M12 biopsy (kidney allograft; maintenance Tacrolimus, MMF): Normal | M12 biopsy (kidney allograft; [6]): Acute rejection Banff 1A | M06 biopsy (kidney allograft; kidney biopsy at month 6, M12 biopsy declined): M06 Biopsy Normal Declined M12 | T cell levels recovered ([2]; by 36 months): approximately 50 % baseline | lymphocyte repopulation (total lymphocyte count versus pre-transplant) ([2]; month 12 post-transplant): below 50 % baseline | time at which B cells recovered to baseline numbers ([2]; peripheral blood, 29 patients): ≤ 12 months | time at which monocytes recovered to baseline numbers ([2]; peripheral blood, 29 patients): ≤ 3 months | Donor-specific nonresponsiveness (number of patients) [3, 7]: 4 | Equal response (number of patients) [3, 7]: 1 | Hyper-response (number of patients) [3, 7]: 2 | Hypo-response (number of patients) [3, 7]: 8 | Hyper-response (number of patients) ([3]; IFN-γ kinetics, 12 months, n=15 Campath, n=8 Control, listed as CAMPATH): Two | IFN-γ assay ([3]; maintenance Sirolimus): HYPO (3×) and HYPR (2×) and UN (3×) and EQL | IFN-γ assay ([3]; maintenance Sirolimus, MMF): HYPO | IFN-γ assay ([3]; maintenance Tacrolimus): HYPO | IFN-γ assay ([3]; maintenance Tacrolimus, MMF): HYPO | IFN-γ assay ([3]; maintenance Tacrolimus, MMF, prednisone): HYPO | IFN-γ assay [3, 6]: UN | GM-CSF assay [4]: UN (4×) and HYPO (7×) and HYPR (2×) and EQL^a and EQL | percent proliferation of CD3+ cells [5]: 6.7% | percent proliferation of CD4+ cells [5]: 7.1% | percent proliferation of CD8+ cells [5]: 5.1%

— patent US20070202085A1, “Systems and methods for monitoring immune responses and predicting outcomes in transplant recipients” (Renovar Incorporated, priority 2006, published 2007)
